Measured values taken from patent US9174917B2, “Bexarotene analogs” (Arizona Board of Regents on Behalf of Arizona State …, priority 2010, dated 2015).

Experiments:
RXR = settings: from the literature; cited from earlier work
CTCL cells = experiment: DNA microarray gene expression analysis in CTCL cells; assay type: cell-based, human; settings: 4-hour treatment, versus ethanol vehicle control
Excerpt: DNA microarray analysis is a method to assess genome-wide gene expression by simultaneously quantitating mRNA levels from all or a subset of genes in a genome and comparing these levels between a control and an experimental sample. These changes are compared, such as in as wild type versus mutant strains or cells with no treatment compared to cells treated with a reagent. RNA is extracted from the two cell types, and either converted to cDNA or amplified to cRNA, and then this message pool is used to assess gene expression changes. Both pools of labeled message are hybridized to a DNA microarray (or “gene chip”). These microarrays have all genes in the genome spotted onto the array in a precise fashion, such that this chip experiment becomes a genome-wide northern blot, assaying the message levels of all genes in the cells. Since the control and the experimental are hybridized to the same chip, there can be direct comparisons performed between the starting mRNA levels of the two, looking for genes that are under or over expressed in the experimental as compared to the control, analyzing the intensity of the hybridization of both cDNA pools.
The total RNA will be isolated from human CTCL cells, either untreated or treated with bexarotene or the appropriate analog. The RNA quality and integrity will be tested before hybridization using denaturing gel electrophoresis as well as reverse transcription followed by PCR. Once high quality RNA is isolated, labeled cRNA can be generated with the Genisphere 350 kit. Microarrays are readily available for such tests, for example, human microarrays can be obtained from Washington University St. Louis (Human HEEBO microarrays), or alternatively from the Toronto Microarray Centre (Toronto, Canada).
CTCL cells were treated bexarotene or ethanol vehicle control and total RNA was extracted after 4-hour treatment using the BioRad Aurum Total RNA Mini kit. Total RNA extracted was utilized to produce cRNA using a Genisphere 350 kit and was used to hybridize human HEEBO microarray slides obtained from GCAT (Genome Consortium for Active Teaching). The Genisphere 350 kit high sensitivity protocol was used and representative results were obtained (data not shown). […] Likewise, there was a 2.9-fold downregulation of REEP, a gene that occurs in a deleted segment of human 5q31 in malignant myeloid diseases; and 2.6-fold downregulation of RAC GAP1, a GTPase activating protein of RAC, a protein required for malignant cell movement106; and 2.5-fold downregulation of karyopherin alpha 1 (importing alpha 5), a protein required for STAT1 import into the nucleus. […]

Structure (SMILES)	reported / documented RXR activity (RXR)	downregulation of RAC GAP1 (CTCL cells) [fold]	downregulation of REEP (CTCL cells) [fold]	downregulation of karyopherin alpha 1 (importing alpha 5) (CTCL cells) [fold]	upregulation of death associated protein kinase 3 (CTCL cells) [fold]	upregulation of endothelin converting enzyme 1 (CTCL cells) [fold]	upregulation of urocortin (CTCL cells) [fold]
Cc1cc2c(cc1C1(c3ccc(C(=O)O)cc3)CC1)C(C)(C)CCC2(C)C [Compound 105]	potent, RXR-selective agonists						
CC(/C=C/C1(c2cc3c(cc2C)C(C)(C)CCC3(C)C)CC1)=C\C(=O)O [Compound 106]	potent, RXR-selective agonists						
C=C(c1ccc(C(=O)O)cc1)c1cc2c(cc1C)C(C)(C)CCC2(C)C [bexarotene]		2.6	2.9	2.5	4.3	4.6	3.5
